# Test results: ChEMBL document CHEMBL1201862, “PubChem BioAssay data set” (2004)
# Several values for one entry are separate records, joined by “and”; a condition that tells them apart may be missing. Equal values may be shown once.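 Each compound was tested at five concentrations against cells in 96-well plates for 48 hours. GI50 marks 50% less growth.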 Activity calls are given as the source filed them. No stated cut-off is given here; in the data, active = GI50 up to about 1.1 µM and inactive = higher. Peptide text beside a SMILES is read from it. * marks the point of attachment. Boc = CC(C)(C)OC(=O)*; OBn = c1ccc(CO*)cc1; Bn = c1ccc(C*)cc1
# Assays:
# Test in all cases: NCI-60 cell line screen, 48 h
# SK-MEL-28 = test system: SK-MEL-28
# MCF7 = test system: MCF7
# SK-MEL-2 = test system: SK-MEL-2
# IGROV-1 = test system: IGROV-1
# NCI-H23 = test system: NCI-H23
# HCT-116 = test system: HCT-116
# OVCAR-3 = test system: OVCAR-3
# NCI/ADR-RES = test system: NCI/ADR-RES
# SK-MEL-5 = test system: SK-MEL-5
# SF-539 = test system: SF-539
# PC-3 = test system: PC-3
# HOP-62 = test system: HOP-62
# HCT-15 = test system: HCT-15
# HCC 2998 = test system: HCC 2998
# RPMI-8226 = test system: RPMI-8226
# UACC-257 = test system: UACC-257
# 786-0 = test system: 786-0
# OVCAR-4 = test system: OVCAR-4
# COLO 205 = test system: COLO 205
# MDA-MB-231 = test system: MDA-MB-231
SMILES,GI50 (SK-MEL-28),GI50 (MCF7),GI50 (SK-MEL-2),GI50 (IGROV-1),GI50 (NCI-H23),GI50 (HCT-116),GI50 (OVCAR-3),GI50 (NCI/ADR-RES),GI50 (SK-MEL-5),GI50 (SF-539),GI50 (PC-3),GI50 (HOP-62),GI50 (HCT-15) [µM],GI50 (HCC 2998),GI50 (RPMI-8226),GI50 (UACC-257),GI50 (786-0),GI50 (OVCAR-4),GI50 (COLO 205),GI50 (MDA-MB-231)
CCC(=O)Nc1ccc(N2C(=O)/C(=C/c3ccc(O)c(OC)c3)N=C2c2ccccc2)cc1,25.6 µM (inactive),31.6 µM (inactive),23.6 µM (inactive),31.1 µM (inactive),43.8 µM (inactive),34.4 µM (inactive),28.3 µM (inactive),70.6 µM (inactive),14.3 µM (inactive),84.1 µM (inactive),16.5 µM (inactive),46.6 µM (inactive),21.3,21 µM (inactive),6.82 µM (inactive),26.7 µM (inactive),24 µM (inactive),9.91 µM (inactive),–,–
Cc1ccc(S(=O)(=O)NC(=O)Nc2cc(Cl)c(S(N)(=O)=O)cc2S(N)(=O)=O)cc1,> 100 µM (inactive),> 100 µM (inactive),> 100 µM (inactive),> 100 µM (inactive),> 100 µM (inactive),> 100 µM (inactive),> 100 µM (inactive),> 100 µM (inactive),> 100 µM (inactive),58.3 µM (inactive),–,> 100 µM (inactive),> 100,–,> 100 µM (inactive),> 100 µM (inactive),> 100 µM (inactive),> 100 µM (inactive),> 100 µM (inactive),> 100 µM (inactive)
CC1OC(OC2C(OC(=O)[C@]34CCC(C)(C)C[C@H]3C3=CC[C@@H]5[C@@]6(C)CC[C@H](OC7OC(C(=O)O)C(O)C(O)C7O)C(C)(C)[C@@H]6CC[C@@]5(C)[C@]3(C)CC4)OCC(O)C2O)C(O)C(O)C1OC1OCC(O)C(O)C1O (stereo partly specified),18.1 µM (inactive) and 24 µM (inactive),50.1 µM (inactive) and 41.5 µM (inactive),19.4 µM (inactive) and 33.1 µM (inactive),> 100 µM (inactive),17.7 µM (inactive) and 19.6 µM (inactive),39.9 µM (inactive) and 45.9 µM (inactive),> 100 µM (inactive),93.5 µM (inactive),–,–,–,–,> 100,18.7 µM (inactive) and 19.2 µM (inactive),–,45 µM (inactive) and 29.8 µM (inactive),49.3 µM (inactive) and 65.5 µM (inactive),54 µM (inactive) and 53.8 µM (inactive),16.7 µM (inactive) and 17.3 µM (inactive),11 µM (inactive) and 21.5 µM (inactive)
O=c1cnn2c(n1)sc1ccc3ccccc3c12,> 100 µM (inactive),–,> 100 µM (inactive),> 100 µM (inactive),> 100 µM (inactive),87.9 µM (inactive),> 100 µM (inactive),–,> 100 µM (inactive),> 100 µM (inactive),–,98.9 µM (inactive),> 100,> 100 µM (inactive),> 100 µM (inactive),> 100 µM (inactive),> 100 µM (inactive),> 100 µM (inactive),> 100 µM (inactive),–
CC(C)NC(C)Cc1ccccc1 (stereo unspecified),> 100 µM (inactive),–,> 100 µM (inactive),> 100 µM (inactive),> 100 µM (inactive),> 100 µM (inactive),> 100 µM (inactive),–,> 100 µM (inactive),> 100 µM (inactive),–,> 100 µM (inactive),3.97,> 100 µM (inactive),> 100 µM (inactive),> 100 µM (inactive),> 100 µM (inactive),> 100 µM (inactive),> 100 µM (inactive),–
CCC(=O)N/N=C(\C=C\c1cccc(O)c1)c1sc(Nc2ccc(C)cc2[N+](=O)[O-])nc1C,> 100 µM (inactive),–,> 100 µM (inactive),> 100 µM (inactive),2.22 µM (inactive),> 100 µM (inactive),71.1 µM (inactive),–,> 100 µM (inactive),32.7 µM (inactive),–,> 100 µM (inactive),81.8,> 100 µM (inactive),> 100 µM (inactive),> 100 µM (inactive),> 100 µM (inactive),49 µM (inactive),> 100 µM (inactive),–
CC1C2CC(CC2(C)O)C1(C)C (stereo unspecified),> 100 µM (inactive),> 100 µM (inactive),–,> 100 µM (inactive),> 100 µM (inactive),> 100 µM (inactive),> 100 µM (inactive),–,> 100 µM (inactive),> 100 µM (inactive),> 100 µM (inactive),> 100 µM (inactive),–,> 100 µM (inactive),–,> 100 µM (inactive),> 100 µM (inactive),> 100 µM (inactive),> 100 µM (inactive),> 100 µM (inactive)
CC(C)CC(NC(=O)C(CCC(=O)OCc1ccccc1)NC(=O)OC(C)(C)C)C(=O)NC(COCc1ccccc1)C(=O)NC(Cc1ccccc1)C(=O)O (stereo unspecified) (Boc-E(OBn)LS(Bn)F-OH; configuration not given here),> 100 µM (inactive),> 100 µM (inactive),> 100 µM (inactive),> 100 µM (inactive),> 100 µM (inactive),> 100 µM (inactive),–,–,> 100 µM (inactive),–,> 100 µM (inactive),> 100 µM (inactive),> 100,> 100 µM (inactive),> 100 µM (inactive),> 100 µM (inactive),> 100 µM (inactive),–,> 100 µM (inactive),> 100 µM (inactive)
